PubChem BioAssay (NCI)
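At the GI50, growth is halved. TGI: concentration producing complete growth inhibition.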

Key:
Assay in all cases: NCI tumour cell line growth inhibition, 384-well format
786-0 renal = system: 786-0 renal
A498 renal = system: A498 renal
A549 NSCLC = system: A549 NSCLC
ACHN renal = system: ACHN renal
BT-549 breast = system: BT-549 breast
CAKI-1 renal = system: CAKI-1 renal
CCRF-CEM leukemia = system: CCRF-CEM leukemia
COLO 205 colon = system: COLO 205 colon
DU-145 prostate = system: DU-145 prostate
EKVX NSCLC = system: EKVX NSCLC
HCC-2998 colon = system: HCC-2998 colon
HCT-116 colon = system: HCT-116 colon
HCT-15 colon = system: HCT-15 colon
HL-60(TB) leukemia = system: HL-60(TB) leukemia
HOP-62 NSCLC = system: HOP-62 NSCLC
HOP-92 NSCLC = system: HOP-92 NSCLC
HT29 colon = system: HT29 colon
IGROV1 ovarian = system: IGROV1 ovarian
K-562 leukemia = system: K-562 leukemia
KM12 colon = system: KM12 colon
LOX IMVI melanoma = system: LOX IMVI melanoma
M14 melanoma = system: M14 melanoma
MALME-3M melanoma = system: MALME-3M melanoma
MCF7 breast = system: MCF7 breast
MDA-MB-231 breast = system: MDA-MB-231 breast
MDA-MB-435 melanoma = system: MDA-MB-435 melanoma
MDA-MB-468 breast = system: MDA-MB-468 breast
MOLT-4 leukemia = system: MOLT-4 leukemia
NCI-H226 lung = system: NCI-H226 lung
NCI-H23 lung = system: NCI-H23 lung
NCI-H322M lung = system: NCI-H322M lung
NCI-H460 NSCLC = system: NCI-H460 NSCLC
NCI-H522 lung = system: NCI-H522 lung
NCI/ADR-RES ovarian = system: NCI/ADR-RES ovarian
OVCAR-3 ovarian = system: OVCAR-3 ovarian
OVCAR-4 ovarian = system: OVCAR-4 ovarian
OVCAR-5 ovarian = system: OVCAR-5 ovarian
OVCAR-8 ovarian = system: OVCAR-8 ovarian
PC-3 prostate = system: PC-3 prostate
RPMI-8226 leukemia = system: RPMI-8226 leukemia
RXF 393 renal = system: RXF 393 renal
SF-268 CNS = system: SF-268 CNS
SF-295 CNS = system: SF-295 CNS
SF-539 CNS = system: SF-539 CNS
SK-MEL-2 melanoma = system: SK-MEL-2 melanoma
SK-MEL-28 melanoma = system: SK-MEL-28 melanoma
SK-MEL-5 melanoma = system: SK-MEL-5 melanoma
SK-OV-3 ovarian = system: SK-OV-3 ovarian
SN12C renal = system: SN12C renal
SNB-19 CNS = system: SNB-19 CNS
SNB-75 CNS = system: SNB-75 CNS
SR leukemia = system: SR leukemia
SW-620 colon = system: SW-620 colon
T-47D breast = system: T-47D breast
TK-10 renal = system: TK-10 renal
U251 glioblastoma = system: U251 glioblastoma
UACC-257 melanoma = system: UACC-257 melanoma
UACC-62 melanoma = system: UACC-62 melanoma
UO-31 renal = system: UO-31 renal

C=CC(=O)Nc1cc(N2CCN(CC)CC2)ccc1Nc1cc(N(C)C(=O)Nc2c(Cl)c(OC)cc(OC)c2Cl)ncn1
GI50 ([…]-0 renal): 1710 nM
TGI (786-0 renal): 3140 nM
GI50 (A498 renal): 1720 nM
TGI (A498 renal): 3140 nM
GI50 (A549 NSCLC): 5630 nM
TGI (A549 NSCLC): 13100 nM
GI50 (ACHN renal): 4550 nM
TGI (ACHN renal): 10700 nM
GI50 (BT-549 breast): 1400 nM
TGI (BT-549 breast): 2730 nM
GI50 (CAKI-1 renal): 2640 nM
TGI (CAKI-1 renal): 7010 nM
GI50 (CCRF-CEM leukemia): 1560 nM
TGI (CCRF-CEM leukemia): 2920 nM
GI50 (COLO 205 colon): 2310 nM
TGI (COLO 205 colon): 4240 nM
GI50 (DU-145 prostate): 1910 nM
TGI (DU-145 prostate): 3760 nM
GI50 (EKVX NSCLC): 2340 nM
TGI (EKVX NSCLC): 5570 nM
GI50 (HCC-2998 colon): 1700 nM
TGI (HCC-2998 colon): 3080 nM
GI50 (HCT-116 colon): 1880 nM
TGI (HCT-116 colon): 3460 nM
GI50 (HCT-15 colon): 2830 nM
TGI (HCT-15 colon): 6990 nM
GI50 (HL-60(TB) leukemia): 1940 nM
TGI (HL-60(TB) leukemia): 3370 nM
GI50 (HOP-62 NSCLC): 2450 nM
TGI (HOP-62 NSCLC): 6360 nM
GI50 (HOP-92 NSCLC): 1020 nM
TGI (HOP-92 NSCLC): 2770 nM
GI50 (HT29 colon): 1970 nM
TGI (HT29 colon): 3960 nM
GI50 (IGROV1 ovarian): 1860 nM
TGI (IGROV1 ovarian): 3660 nM
GI50 (K-562 leukemia): 1850 nM
TGI (K-562 leukemia): 3400 nM
GI50 (KM12 colon): 1760 nM
TGI (KM12 colon): 3230 nM
GI50 (LOX IMVI melanoma): 1870 nM
TGI (LOX IMVI melanoma): 3280 nM
GI50 (M14 melanoma): 2380 nM
TGI (M14 melanoma): 5120 nM
GI50 (MALME-3M melanoma): 1960 nM
TGI (MALME-3M melanoma): 3470 nM
GI50 (MCF7 breast): 1750 nM
TGI (MCF7 breast): 6280 nM
GI50 (MDA-MB-231 breast): 1670 nM
TGI (MDA-MB-231 breast): 3310 nM
GI50 (MDA-MB-435 melanoma): 2560 nM
TGI (MDA-MB-435 melanoma): 5840 nM
GI50 (MDA-MB-468 breast): 785 nM
TGI (MDA-MB-468 breast): 2010 nM
GI50 (MOLT-4 leukemia): 910 nM
TGI (MOLT-4 leukemia): 2210 nM
GI50 (NCI-H226 lung): 1840 nM
TGI (NCI-H226 lung): 4390 nM
GI50 (NCI-H23 lung): 3680 nM
TGI (NCI-H23 lung): 10000 nM
GI50 (NCI-H322M lung): 10500 nM
TGI (NCI-H322M lung): 31000 nM
GI50 (NCI-H460 NSCLC): 1730 nM
TGI (NCI-H460 NSCLC): 3180 nM
GI50 (NCI-H522 lung): 1630 nM
TGI (NCI-H522 lung): 3020 nM
GI50 (NCI/ADR-RES ovarian): > 44600 nM
TGI (NCI/ADR-RES ovarian): > 78500 nM
GI50 (OVCAR-3 ovarian): 1400 nM
TGI (OVCAR-3 ovarian): 2850 nM
GI50 (OVCAR-4 ovarian): 2030 nM
TGI (OVCAR-4 ovarian): 6620 nM
GI50 (OVCAR-5 ovarian): 7010 nM
TGI (OVCAR-5 ovarian): 19000 nM
GI50 (OVCAR-8 ovarian): 1760 nM
TGI (OVCAR-8 ovarian): 3310 nM
GI50 (PC-3 prostate): 1810 nM
TGI (PC-3 prostate): 3270 nM
GI50 (RPMI-8226 leukemia): 605 nM
TGI (RPMI-8226 leukemia): 1520 nM
GI50 (RXF 393 renal): 680 nM
TGI (RXF 393 renal): 2190 nM
GI50 (SF-268 CNS): 1880 nM
TGI (SF-268 CNS): 3960 nM
GI50 (SF-295 CNS): 15800 nM
TGI (SF-295 CNS): 29400 nM
GI50 (SF-539 CNS): 1580 nM
TGI (SF-539 CNS): 2950 nM
GI50 (SK-MEL-2 melanoma): 1210 nM
TGI (SK-MEL-2 melanoma): 2460 nM
GI50 (SK-MEL-28 melanoma): 2050 nM
TGI (SK-MEL-28 melanoma): 4390 nM
GI50 (SK-MEL-5 melanoma): 1800 nM
TGI (SK-MEL-5 melanoma): 3430 nM
GI50 (SK-OV-3 ovarian): 2510 nM
TGI (SK-OV-3 ovarian): 6710 nM
GI50 (SN12C renal): 2010 nM
TGI (SN12C renal): 3740 nM
GI50 (SNB-19 CNS): 2890 nM
TGI (SNB-19 CNS): 7710 nM
GI50 (SNB-75 CNS): 1980 nM
TGI (SNB-75 CNS): 4310 nM
GI50 (SR leukemia): 922 nM
TGI (SR leukemia): 2230 nM
GI50 (SW-620 colon): 1770 nM
TGI (SW-620 colon): 3180 nM
GI50 (T-47D breast): 1310 nM
TGI (T-47D breast): 2990 nM
GI50 (TK-10 renal): 2180 nM
TGI (TK-10 renal): 5020 nM
GI50 (U251 glioblastoma): 1890 nM
TGI (U251 glioblastoma): 3440 nM
GI50 (UACC-257 melanoma): 1420 nM
TGI (UACC-257 melanoma): 2780 nM
GI50 (UACC-62 melanoma): 1560 nM
TGI (UACC-62 melanoma): 3030 nM
GI50 (UO-31 renal): 2030 nM
TGI (UO-31 renal): 4080 nM
